As usually defined, the inhibition is the drop in the measured response relative to a control, in per cent.

Here are results for 63 molecules from ChEMBL document CHEMBL3301458, “MMV Malaria Box hERG screening”.

In data set [1] the target is T1, hERG (Kv11.1, KCNH2) (Homo sapiens, UniProt Q12809). The data set is described as follows: in vitro.
Description: MMV: Malaria Box compounds were tested for inhibition of the human ether a go-go related gene (hERG), Kv11.1 channel, using IonWorks 384-well patch clamp electrophysiology at 11.1uM (3 independent assay plates up to 12 cells per concentration).
Data set [2] deals with T1, hERG (Kv11.1, KCNH2). The data set is described as follows: in vitro. The source holds these as a separate data set.
Description: MMV: Malaria Box compounds were tested for inhibition of the human ether a go-go related gene (hERG), Kv11.1 channel, using IonWorks 384-well patch clamp electrophysiology at 1.1uM (3 independent assay plates up to 12 cells per concentration).

Structures are written as SMILES. Activity calls are given as the source filed them. No rule for the calls is given here.

T1 sequence (Q12809 whole entry): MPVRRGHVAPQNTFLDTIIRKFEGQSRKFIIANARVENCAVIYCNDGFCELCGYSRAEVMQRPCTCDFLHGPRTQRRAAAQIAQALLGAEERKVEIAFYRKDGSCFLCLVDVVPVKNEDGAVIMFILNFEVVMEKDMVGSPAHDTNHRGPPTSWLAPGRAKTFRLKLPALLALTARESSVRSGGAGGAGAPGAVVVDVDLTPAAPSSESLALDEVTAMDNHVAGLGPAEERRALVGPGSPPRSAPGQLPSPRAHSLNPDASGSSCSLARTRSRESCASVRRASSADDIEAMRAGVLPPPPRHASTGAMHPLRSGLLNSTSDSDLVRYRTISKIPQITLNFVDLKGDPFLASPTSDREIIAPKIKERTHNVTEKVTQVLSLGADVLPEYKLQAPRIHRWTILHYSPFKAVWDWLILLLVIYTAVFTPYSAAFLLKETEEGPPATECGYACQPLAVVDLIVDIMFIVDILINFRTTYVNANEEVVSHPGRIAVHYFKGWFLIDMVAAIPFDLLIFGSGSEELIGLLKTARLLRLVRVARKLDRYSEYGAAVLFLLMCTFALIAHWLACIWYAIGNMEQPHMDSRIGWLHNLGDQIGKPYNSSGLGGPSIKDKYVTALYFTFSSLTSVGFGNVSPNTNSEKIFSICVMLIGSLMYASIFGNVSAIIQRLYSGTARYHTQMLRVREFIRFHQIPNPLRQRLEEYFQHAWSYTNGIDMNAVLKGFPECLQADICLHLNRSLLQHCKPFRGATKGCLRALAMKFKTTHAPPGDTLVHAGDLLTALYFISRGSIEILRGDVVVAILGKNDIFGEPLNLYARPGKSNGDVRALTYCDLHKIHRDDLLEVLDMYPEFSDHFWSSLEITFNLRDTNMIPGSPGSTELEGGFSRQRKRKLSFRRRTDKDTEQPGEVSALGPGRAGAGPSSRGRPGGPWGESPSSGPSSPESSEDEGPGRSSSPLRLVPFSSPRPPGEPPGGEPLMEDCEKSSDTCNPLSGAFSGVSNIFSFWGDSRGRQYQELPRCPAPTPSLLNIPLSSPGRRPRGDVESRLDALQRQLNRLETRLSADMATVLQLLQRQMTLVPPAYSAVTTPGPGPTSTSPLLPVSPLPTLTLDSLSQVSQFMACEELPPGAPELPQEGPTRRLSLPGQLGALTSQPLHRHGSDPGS

On to `CN1CCN(c2ccc(Nc3c4ccccc4nc4ccccc34)cc2)CC1`, for which the inhibition at 11.1 µM in data set [1] was 75% (active). Further, in data set [2], the inhibition at 1.1 µM was 24%.
For the molecule `CN(C)CCCNc1c2ccccc2nc2ccccc12`, the inhibition at 11.1 µM in data set [1] was 31%. Besides, the inhibition at 1.1 µM in data set [2] is 5%.
Turning to `CCN(CC)CCNc1ccnc2cc(Cl)ccc12`, the inhibition at 11.1 µM in data set [1] was 61% (active). Moreover, the inhibition at 1.1 µM in data set [2] came out at 18%.
On to `O=C(Nc1ccc(Br)cc1)Nc1cccc(Cl)c1`, for which, in data set [1], the inhibition at 11.1 µM is 11% (inactive). Moreover, the inhibition at 1.1 µM in data set [2] is -5%.
On to `Cc1cc(NCCN2CCCCC2)c2ccc3ccccc3c2n1`, for which the inhibition at 11.1 µM in data set [1] is 95% (active). Besides, the inhibition at 1.1 µM in data set [2] was 32%.
Take `O=C(NCc1ccco1)C1CCN(S(=O)(=O)c2ccc(Cl)cc2)CC1`: the inhibition at 11.1 µM in data set [1] came out at 38%. The inhibition at 1.1 µM in data set [2] was found to be 11%.
On to `CCc1c(C)c(=N)c2ccccc2n1C`, for which the inhibition at 11.1 µM in data set [1] was 11% (inactive). Besides, in data set [2], the inhibition at 1.1 µM is 6%.
`Oc1ccc(-c2nc(-c3ccc4oc5ccc(-c6[nH]c(-c7ccc(O)cc7)nc6-c6ccccc6)cc5c4c3)c(-c3ccccc3)[nH]2)cc1`: in data set [1], the inhibition at 11.1 µM is 54% (active). For the same molecule, the inhibition at 1.1 µM in data set [2] turned out to be 12%.
In the case of `CN(C)c1ccc(C=Cc2nc(=O)c3ccccc3o2)cc1`, the inhibition at 11.1 µM in data set [1] is 0% (inactive). In addition, the inhibition at 1.1 µM in data set [2] came to 2%.
In the same order, the values of `CCN(CC)CCn1c(=N)n(CC(O)c2ccc(Cl)c(Cl)c2)c2ccccc21` (stereo unspecified) are 86% (active) and 36%.
Consider `Cc1ccnc(NC(c2cccc(OCc3ccccc3)c2)c2ccc3cccnc3c2O)c1` (stereo unspecified), for which the inhibition at 11.1 µM in data set [1] was 24% (inactive). The inhibition at 1.1 µM in data set [2] came out at 6%.
Regarding `CCN(CC)CCNc1ccnc2cc3ccccc3cc12`, in data set [1], the inhibition at 11.1 µM was 6% (inactive). For the same molecule, in data set [2], the inhibition at 1.1 µM came out at 9%.
With `COc1ccc(NC(=O)C2c3ccccc3C(=O)N(CC(C)C)C2c2cccs2)cc1Cl` (stereo unspecified), in data set [1], the inhibition at 11.1 µM is 24% (inactive). Besides, the inhibition at 1.1 µM in data set [2] turned out to be 0%.
Turning to `Cc1cc(Nc2cccc(F)c2)nc(NCc2ccccc2)n1`, in data set [1], the inhibition at 11.1 µM was 73% (active). In addition, the inhibition at 1.1 µM in data set [2] amounted to 11%.
In the case of `OCCNc1nc(Nc2ccc(Cl)c(Cl)c2)nc2ccccc12`, in data set [1], the inhibition at 11.1 µM came to 30%. In addition, in data set [2], the inhibition at 1.1 µM was 4%.
With `CCOC(=O)c1cnc2ccc(OC)cc2c1Nc1ccc(N2CCN(C)CC2)cc1`, in data set [1], the inhibition at 11.1 µM is 15% (inactive). The inhibition at 1.1 µM in data set [2] was 15%.
On to `CCOc1cc2c(cc1OCC)C(c1cc(Cl)ccc1O)NCC2` (stereo unspecified), for which the inhibition at 11.1 µM in data set [1] was 20% (inactive). Moreover, the inhibition at 1.1 µM in data set [2] stood at 1%.
Regarding `COc1cc(OC)c(N(C)C(=O)c2cc3c(s2)-c2ccccc2S(=O)(=O)C3)cc1Cl`, in data set [1], the inhibition at 11.1 µM was found to be 41%. For the same molecule, the inhibition at 1.1 µM in data set [2] is 3%.
For the molecule `O=C1c2ccccc2C2=Nc3ccccc3SC(c3cccc(F)c3)C12` (stereo unspecified), the inhibition at 11.1 µM in data set [1] is 4% (inactive). Further, the inhibition at 1.1 µM in data set [2] is -4%.
For `CCOC(=O)c1cnc2c(C)cccc2c1Nc1ccc(C(C)=O)cc1`, the inhibition at 11.1 µM in data set [1] turned out to be 39%. The inhibition at 1.1 µM in data set [2] was 6%.
In the same order, the values of `CCOc1cc2c(cc1OCC)C(c1cc(C)c(O)c(C)c1)NCC2` (stereo unspecified) are 36% and 13%.
As to `O=C1CC(O)(C(F)(F)C(F)(F)F)Oc2ccccc21` (stereo unspecified), the inhibition at 11.1 µM in data set [1] was 3% (inactive). The inhibition at 1.1 µM in data set [2] was -9%.
Regarding `Cc1ccc(C2CC(C(F)(F)F)n3nc(C(=O)N4CCN(C(c5ccccc5)c5ccccc5)CC4)cc3N2)cc1` (stereo unspecified), the inhibition at 11.1 µM in data set [1] was 8% (inactive). In addition, in data set [2], the inhibition at 1.1 µM is 5%.
For `Cc1ccc2nc(C)cc(Nc3cccc(C(F)(F)F)c3)c2c1`, in that order: 106% (active) and 48%.
Take `CCOc1cccc2sc(N(Cc3cccnc3)C(=O)C3CCCCC3)nc12`: the inhibition at 11.1 µM in data set [1] is 54% (active). The inhibition at 1.1 µM in data set [2] stood at 8%.
As for `CC(C)c1ccc(CNCC(O)c2ccccc2)cc1` (stereo unspecified), in data set [1], the inhibition at 11.1 µM was 59% (active). In addition, the inhibition at 1.1 µM in data set [2] came out at 15%.
Turning to `CC1CC(C)CN(C(=O)c2ccc(Cl)cc2Cl)C1` (stereo unspecified), the inhibition at 11.1 µM in data set [1] is 5% (inactive). Moreover, the inhibition at 1.1 µM in data set [2] was -3%.
Turning to `COc1ccccc1CNC(=O)C1c2ccccc2C(=O)N(CC(C)C)C1c1cccs1` (stereo unspecified), the inhibition at 11.1 µM in data set [1] was 17% (inactive). Also, in data set [2], the inhibition at 1.1 µM is -15%.
In the same order, the values of `CCOc1cc2c(cc1OCC)C(c1cc(Cl)c(O)c(OCC)c1)NCC2` (stereo unspecified) are 57% (active) and 1%.
For `OC(CNC1CCCC1)Cn1c2ccccc2c2ccccc21` (stereo unspecified), in that order: 55% (active) and 8%.
On to `CCc1ccc(Nc2cc(C)c3ccc(O)cc3n2)cc1`, for which the inhibition at 11.1 µM in data set [1] was 78% (active). The inhibition at 1.1 µM in data set [2] amounted to 15%.
Regarding `CCN(CC)c1cc(C)c2cc(NC(=O)c3cccc(OC)c3)ccc2n1`, the inhibition at 11.1 µM in data set [1] is 103%. Moreover, in data set [2], the inhibition at 1.1 µM came to 85%.
With `COc1ccc(C(O)(CCC(C)C)C(CN2CCOCC2)c2ccc(Cl)cc2)cc1` (stereo unspecified), in data set [1], the inhibition at 11.1 µM is 109% (active). Besides, in data set [2], the inhibition at 1.1 µM is 4%.
In the case of `CCCCCCn1c(=N)n(CC(O)COc2cccc(C)c2)c2ccccc21` (stereo unspecified), in data set [1], the inhibition at 11.1 µM was determined as 111%. Also, in data set [2], the inhibition at 1.1 µM stood at 57%.
In the same order, the values of `Cc1ccc(NC(=O)Nc2cccc(Cl)c2)cc1F` are -1% (inactive) and -7%.
As to `CC(C)OCc1cc(CN2CCN(c3cccc(Cl)c3)CC2)c(O)c2ncccc12`, the inhibition at 11.1 µM in data set [1] amounted to 100%. In data set [2], the inhibition at 1.1 µM was determined as 65%.
With `Oc1ccc(Br)cc1CN1CCN(Cc2cccc(F)c2)CC1`, the inhibition at 11.1 µM in data set [1] was 18% (inactive). Further, in data set [2], the inhibition at 1.1 µM is -1%.
For `COc1ccc(-c2cc(=O)oc3c4c(ccc23)OCN(Cc2ccc(F)cc2)C4)cc1`, the inhibition at 11.1 µM in data set [1] was 16% (inactive). For the same molecule, the inhibition at 1.1 µM in data set [2] was 24%.
For `CSc1ccccc1C(=O)Nc1nc(-c2ccccn2)cs1`, in that order: 39% and 15%.
In the case of `CC(O)(c1ccc(Cl)cc1)C(CN1CCCCC1)c1ccccc1` (stereo unspecified), in data set [1], the inhibition at 11.1 µM was 84% (active). Also, in data set [2], the inhibition at 1.1 µM was 40%.
Regarding `CCCCc1ccc(NS(=O)(=O)c2cc3c4c(c2)CCN4C(=O)CC3)cc1`, the inhibition at 11.1 µM in data set [1] was 26%. Moreover, in data set [2], the inhibition at 1.1 µM was 2%.
With `CCn1c2c(c(=N)c3c1CCC3)CCCC2`, the inhibition at 11.1 µM in data set [1] was 104% (active). Further, the inhibition at 1.1 µM in data set [2] was 48%.
On to `CCCOCc1cc(CN2CCN(c3cccc(Cl)c3)CC2)c(O)c2ncccc12`, for which the inhibition at 11.1 µM in data set [1] is 106% (active). The inhibition at 1.1 µM in data set [2] is 3%.
With `CCOc1ccc2c(c1)CN(Cc1ccc(Cl)cc1)CO2`, the inhibition at 11.1 µM in data set [1] was 99% (active). For the same molecule, the inhibition at 1.1 µM in data set [2] amounted to 33%.
Consider `CCOc1ccccc1CNC(=O)C1c2ccccc2C(=O)N(CC(C)C)C1c1cccs1` (stereo unspecified), for which, in data set [1], the inhibition at 11.1 µM was 84% (active). The inhibition at 1.1 µM in data set [2] was 12%.
Regarding `CC(C)(C)c1ccc2c(c1)CN(Cc1ccc(Cl)cc1)CO2`, the inhibition at 11.1 µM in data set [1] is 12% (inactive). Besides, the inhibition at 1.1 µM in data set [2] is 25%.
For `CCCCC(O)(c1ccc(Cl)cc1)C(CN1CCOCC1)c1ccc(Cl)cc1` (stereo unspecified), in that order: 35% and 18%.
For `c1ccc(CNc2nc(Nc3ccccc3)nc3ccccc23)cc1`, in that order: 69% (active) and 17%.
For `COc1ccc(Nc2nc(NCc3ccccc3)c3ccccc3n2)cc1`, the inhibition at 11.1 µM in data set [1] is 53% (active). In addition, the inhibition at 1.1 µM in data set [2] was 0%.
Take `COc1ccc2c(c1OC)C(=O)N1c3ccccc3N=C(c3ccc(C)cc3)CC21` (stereo unspecified): in data set [1], the inhibition at 11.1 µM was 10% (inactive). Also, the inhibition at 1.1 µM in data set [2] came out at 25%.
As for `Oc1c(CN2CCN(c3ccccc3F)CC2)cc(Br)c2cccnc12`, the inhibition at 11.1 µM in data set [1] was found to be 46%. For the same molecule, the inhibition at 1.1 µM in data set [2] was -9%.
In the case of `OC(CNCc1ccccc1)Cn1c2ccccc2c2ccccc21` (stereo unspecified), the inhibition at 11.1 µM in data set [1] is 94% (active). Also, the inhibition at 1.1 µM in data set [2] came to 41%.
With `CCOc1ccc(Nc2c3ccccc3nc3ccccc23)cc1`, the inhibition at 11.1 µM in data set [1] was determined as 112%. In data set [2], the inhibition at 1.1 µM was 68%.
In the same order, the values of `COc1ccc(C)c2sc(N(Cc3cccnc3)C(=O)c3ccc(C#N)cc3)nc12` are 69% (active) and 1%.
As to `COc1ccc(C2Sc3ccccc3N=C3C2=C(O)c2ccccc23)cc1` (stereo unspecified), the inhibition at 11.1 µM in data set [1] was found to be 26%. Besides, the inhibition at 1.1 µM in data set [2] was -2%.
For `CCCCCCC(O)(c1ccc(F)cc1)C(CN1CCOCC1)c1ccccc1` (stereo unspecified), in that order: 71% (active) and 0%.
Regarding `CCCN(CCC)CCCNC(=O)c1cc2c(-c3ccc(OC)c(OC)c3)nn(C)c2s1`, in data set [1], the inhibition at 11.1 µM came out at 47%. Further, the inhibition at 1.1 µM in data set [2] is 6%.
Turning to `CCCCCn1c(=N)n(CC(O)COc2cccc(C)c2)c2ccccc21` (stereo unspecified), the inhibition at 11.1 µM in data set [1] was determined as 101%. The inhibition at 1.1 µM in data set [2] is 59%.
For the molecule `Cc1ccc(Nc2nc(NCCO)c3ccccc3n2)cc1C`, the inhibition at 11.1 µM in data set [1] is 81% (active). Also, the inhibition at 1.1 µM in data set [2] was greater than 12%.
With `COc1ccc2sc(N(Cc3cccnc3)C(=O)c3ccc(C#N)cc3)nc2c1`, the inhibition at 11.1 µM in data set [1] is 82% (active). In addition, in data set [2], the inhibition at 1.1 µM is 14%.
`CC1CCCCN1CCCNC(=O)c1ccc2c(c1)sc1nc(-c3ccc(F)cc3)cn12` (stereo unspecified): in data set [1], the inhibition at 11.1 µM came to 81%. Also, in data set [2], the inhibition at 1.1 µM came to 64%.
In the case of `COc1ccc(NC(=O)C2c3ccccc3C(=O)N(CC(C)C)C2c2cccs2)cc1` (stereo unspecified), in data set [1], the inhibition at 11.1 µM is 18% (inactive). For the same molecule, the inhibition at 1.1 µM in data set [2] came to 7%.
Regarding `CN1CCN(c2nc(Nc3ccc(O)cc3)nc3ccccc23)CC1`, the inhibition at 11.1 µM in data set [1] stood at 31%. In addition, in data set [2], the inhibition at 1.1 µM was found to be 31%.
